In ChEMBL document CHEMBL1126241, “Synthesis, characterization, and Ca2+ antagonistic activity of diltiazem metabolites” (J Med Chem, 1992):

Test system: Cricetinae gen. sp.
Assay: Concentration (10 e-6 M) required to block [Ca2+]-induced contraction of K+-depolarized hamster aorta
Type: functional

SMILES	IC50
CC(=O)OC1C(=O)N(CCN(C)C)c2ccccc2SC1c1ccc(O)cc1 (configuration not stated)	40.4 µM
CN(C)CCN1C(=O)C(O)C(c2ccc(O)cc2)Sc2ccccc21 (configuration not stated)	45.5 µM
CNCCN1C(=O)C(OC(C)=O)C(c2ccc(OC)cc2)Sc2ccccc21 (configuration not stated)	3.27 µM
CNCCN1C(=O)C(O)C(c2ccc(O)cc2)Sc2ccccc21 (configuration not stated)	127 µM
CNCCN1C(=O)C(O)C(c2ccc(OC)cc2)Sc2ccccc21 (configuration not stated)	20.2 µM
CNCCN1C(=O)C(OC(C)=O)C(c2ccc(O)cc2)Sc2ccccc21 (configuration not stated)	112 µM
COc1ccc([C@@H]2Sc3ccccc3N(CCN(C)C)C(=O)[C@@H]2OC(C)=O)cc1 [DILTIAZEM]	0.98 µM
